Results from the NIST ThermoML archive (doi:10.1021/je060217u).
Numbers after ± are expanded uncertainties.

Tests used:
[1] = xn = mol fraction of the nth substance listed; settings: 298.15 K, 101 kPa, Liquid
[2] = 298.15 K; 101 kPa; Liquid

COC(=O)OC [dimethyl carbonate] + CCO
[1]
Settings	mass density [kg/m3]
x2 = 0	1063.19 ± 0.31
x2 = 0.0501	1052.75 ± 0.29
x2 = 0.1	1042.29 ± 0.27
x2 = 0.1501	1031.54 ± 0.25
x2 = 0.1998	1020.64 ± 0.24
x2 = 0.2498	1009.34 ± 0.22
x2 = 0.2998	997.73 ± 0.21
x2 = 0.3501	985.68 ± 0.24
x2 = 0.4002	973.28 ± 0.26
x2 = 0.4499	960.59 ± 0.29
x2 = 0.5	947.4 ± 0.32
x2 = 0.55	933.74 ± 0.34
x2 = 0.6001	919.57 ± 0.36
x2 = 0.65	905 ± 0.38
x2 = 0.6999	889.89 ± 0.41
x2 = 0.7499	874.1 ± 0.43
x2 = 0.8001	857.71 ± 0.46
x2 = 0.8498	840.7 ± 0.49
x2 = 0.8998	822.98 ± 0.53
x2 = 0.95	804.45 ± 0.56

CCCO [propan-1-ol]
Settings	mass density [kg/m3]
[2]	799.75 ± 0.57

CCCCO [butan-1-ol]
Settings	mass density [kg/m3]
[2]	806.04 ± 0.56

COC(=O)OC [dimethyl carbonate]
Settings	mass density [kg/m3]
[2]	1063.19 ± 0.31

COC(=O)OC [dimethyl carbonate] + CCCCO
[1]
Settings	mass density [kg/m3]
x2 = 0	1063.19 ± 0.31
x2 = 0.0502	1047.97 ± 0.28
x2 = 0.0999	1033.24 ± 0.26
x2 = 0.1499	1018.51 ± 0.23
x2 = 0.2003	1004.53 ± 0.21
x2 = 0.2501	990.53 ± 0.22
x2 = 0.2998	976.9 ± 0.25
x2 = 0.3499	963.39 ± 0.27
x2 = 0.4	950.13 ± 0.3
x2 = 0.4501	937.02 ± 0.33
x2 = 0.5	924.2 ± 0.35
x2 = 0.55	911.58 ± 0.37
x2 = 0.6	899.07 ± 0.39
x2 = 0.65	886.83 ± 0.41
x2 = 0.7	874.68 ± 0.43
x2 = 0.7499	862.98 ± 0.45
x2 = 0.7999	851.07 ± 0.47
x2 = 0.85	839.53 ± 0.49
x2 = 0.8999	828.11 ± 0.52
x2 = 0.9499	817 ± 0.54

CCO [ethanol] + COC(=O)OC
Settings	mass density [kg/m3]
[1], x1 = 1	785.2 ± 0.6

CCCCO [butan-1-ol] + COC(=O)OC
Settings	mass density [kg/m3]
[1], x1 = 1	806.04 ± 0.56

CCO [ethanol]
Settings	mass density [kg/m3]
[2]	785.2 ± 0.6

COC(=O)OC [dimethyl carbonate] + CCCO
[1]
Settings	mass density [kg/m3]
x2 = 0	1063.19 ± 0.31
x2 = 0.0501	1050.5 ± 0.29
x2 = 0.1002	1037.73 ± 0.27
x2 = 0.1498	1025.44 ± 0.24
x2 = 0.1999	1012.47 ± 0.22
x2 = 0.2502	999.85 ± 0.21
x2 = 0.2999	987.13 ± 0.23
x2 = 0.3498	974.39 ± 0.26
x2 = 0.3998	961.45 ± 0.28
x2 = 0.4499	948.47 ± 0.31
x2 = 0.5001	935.29 ± 0.34
x2 = 0.55	922.19 ± 0.35
x2 = 0.6	908.92 ± 0.37
x2 = 0.6501	895.57 ± 0.4
x2 = 0.7001	882.18 ± 0.42
x2 = 0.75	868.68 ± 0.44
x2 = 0.8002	855.15 ± 0.47
x2 = 0.8501	841.36 ± 0.49
x2 = 0.9002	827.59 ± 0.52
x2 = 0.9502	813.83 ± 0.54

CCCO [propan-1-ol] + COC(=O)OC
Settings	mass density [kg/m3]
[1], x1 = 1	799.75 ± 0.57
